Assay results published in US20070128217A1 (priority 2003, published 2007).

Columns and labels:
[1] = tested on: antibodies in sera from SARS patients (sera 1a, 1b, 2, 6, 37, 62, London, SARS-yellow, SARS-green); type: binding, human; set-up: Binding of serum 6 to linear peptides of protein X1 of SARS-CoV Urbani / Binding of serum 37 to linear peptides of protein X1 of SARS-CoV Urbani / Binding of serum 6 to looped/cyclic peptide (PEPSCAN-ELISA) / Binding of serum 37 to looped/cyclic peptide (PEPSCAN-ELISA) / Binding of serum 37 to looped/cyclic peptides of protein X1 of SARS-CoV Urbani / Binding of serum 6 to linear peptides of protein X2 / Binding of serum 37 to linear peptides of protein X2 / Binding of serum 37 to looped/cyclic peptides of protein X2 of SARS-CoV Urbani / Binding of serum 6 to linear peptides of protein M of SARS-CoV Urbani / Binding of serum 37 to linear peptides of protein M of SARS-CoV Urbani / Binding of serum 6 to looped/cyclic peptides of protein M of SARS-CoV Urbani / Binding of serum 37 to looped/cyclic peptides of protein M of SARS-CoV Urbani / Binding of serum 6 to linear peptides of protein X3 of SARS-CoV Urbani / Binding of serum 37 to linear peptides of protein X3 of SARS-CoV Urbani / Binding of serum 37 to looped/cyclic peptides of protein X3 of SARS-CoV Urbani / Binding of serum 6 to linear peptides of protein X4 of SARS-CoV Urbani / Binding of serum 37 to linear peptides of protein X4 of SARS-CoV Urbani / Binding of serum 37 to looped/cyclic peptides of protein X4 of SARS-CoV Urbani / Binding of serum 6 to linear peptides of protein X5 of SARS-CoV Urbani / Binding of serum 37 to linear peptides of protein X5 of SARS-CoV Urbani / Binding of serum 37 to looped/cyclic peptides of protein X5 of SARS-CoV Urbani / Binding of serum 6 to linear peptides of protein N of SARS-CoV Urbani / Binding of serum 37 to linear peptides of protein N of SARS-CoV Urbani / Binding of serum 6 to linear peptide (PEPSCAN-ELISA) / Binding of serum 1a to looped/cyclic peptides of protein N of SARS-CoV Urbani / Binding of serum 1b to looped/cyclic peptides of protein N of SARS-CoV Urbani / Binding of serum 2 to looped/cyclic peptides of protein N of SARS-CoV Urbani / Binding of serum 6 to looped/cyclic peptides of protein N of SARS-CoV Urbani / Binding of serum 37 to looped/cyclic peptides of protein N of SARS-CoV Urbani / Binding of serum 62 to looped/cyclic peptides of protein N of SARS-CoV Urbani / Binding of serum London to looped/cyclic peptides of protein N of SARS-CoV Urbani / Binding of serum SARS-green to looped/cyclic peptides of protein N of SARS-CoV Urbani: unit not given here
[2] = tested on: control sera (pooled serum of ten healthy LUMC hospital workers; commercial negative donor pooled serum from the Dutch bloodbank); type: binding, human; set-up: Binding of Control serum LUMC to linear peptides / Binding of Control serum Blood-bank to linear peptides / Binding of Control serum LUMC to looped peptides / Binding of Control Serum Blood-Bank to Looped peptides / Binding of Control serum LUMC to linear peptides of the protein M of SARS-CoV Urbani / Binding of Control serum Blood-bank to linear peptides of the protein M of SARS-CoV Urbani / Binding of Control serum LUMC to looped peptides of the protein M of SARS-CoV Urbani / Binding of Control Serum Blood-Bank to Looped peptides of the protein M of SARS-CoV Urbani: unit not given here
[3] = tested on: recombinant human anti-SARS-CoV antibody 03-018; type: binding; set-up: Binding of antibody 03-018 to linear peptides of the N protein of SARS-CoV Urbani / Binding of antibody 03-018 to looped/cyclic peptides of the N protein of SARS-CoV Urbani: unit not given here
[4] = tested on: rabbit serum obtained by immunizing a rabbit with the SARS-CoV strain Frankfurt 1; type: binding; set-up: Binding of a rabbit serum to linear peptides / Binding of a rabbit serum to looped peptides / Rabbit serum linear peptides / Rabbit serum looped peptides / Binding of a rabbit serum to linear peptides of protein N of SARS-CoV Urbani (Rabbit serum linear peptides) / Binding of a rabbit serum to looped/cyclic peptides of protein N of SARS-CoV Urbani (Rabbit serum looped peptides): unit not given here

Row | Sequence | Binding of serum 1a to looped/cyclic peptides of protein N of SARS-CoV Urbani [1] | Binding of serum 1b to looped/cyclic peptides of protein N of SARS-CoV Urbani [1] | Binding of serum 2 to looped/cyclic peptides of protein N of SARS-CoV Urbani [1] | Binding of serum 6 to looped/cyclic peptides of protein N of SARS-CoV Urbani [1] | Binding of serum 37 to looped/cyclic peptides of protein N of SARS-CoV Urbani [1] | Binding of serum 62 to looped/cyclic peptides of protein N of SARS-CoV Urbani [1] | Binding of serum London to looped/cyclic peptides of protein N of SARS-CoV Urbani [1] | Binding of serum SARS-green to looped/cyclic peptides of protein N of SARS-CoV Urbani [1] | Binding of serum SARS-yellow to looped/cyclic peptides of protein N of SARS-CoV Urbani [1] | Binding of antibody 03-018 to linear peptides of the N protein of SARS-CoV Urbani [3] | Binding of antibody 03-018 to looped/cyclic peptides of the N protein of SARS-CoV Urbani [3] | Binding of a rabbit serum to linear peptides of protein N of SARS-CoV Urbani (Rabbit serum linear peptides) [4] | Binding of a rabbit serum to looped/cyclic peptides of protein N of SARS-CoV Urbani (Rabbit serum looped peptides) [4] | Binding of serum 1a to linear peptide (PEPSCAN-ELISA) [1] | Binding of serum 1b to linear peptide (PEPSCAN-ELISA) [1] | Binding of serum 2 to linear peptide (PEPSCAN-ELISA) [1] | Binding of serum 6 to linear peptide (PEPSCAN-ELISA) [1] | Binding of serum 37 to linear peptide (PEPSCAN-ELISA) [1] | Binding of serum 62 to linear peptide (PEPSCAN-ELISA) [1] | Binding of serum London to linear peptide (PEPSCAN-ELISA) [1] | further results
1 | AADMDDFSRQLQNSM | 0.3 | 0.2 | 0.3 | 1.6 | 0.5 | 0.3 | 0.2 | 0.2 | 0.2 | 0.2 | 0.2 | 0.2 | 0.3 |  |  |  |  |  |  |  | Binding of serum 1a to linear peptides of protein N of SARS-CoV Urbani [1]: 0.3; Binding of serum 1b to linear peptides of protein N of SARS-CoV Urbani [1]: 0.2; Binding of serum 2 to linear peptides of protein N of SARS-CoV Urbani [1]: 0.2; Binding of serum 6 to linear peptides of protein N of SARS-CoV Urbani [1]: 1.2; Binding of serum 37 to linear peptides of protein N of SARS-CoV Urbani [1]: 0.7; Binding of serum 62 to linear peptides of protein N of SARS-CoV Urbani [1]: 0.6; Binding of serum London to linear peptides of protein N of SARS-CoV Urbani [1]: 0.7; Binding of serum SARS-green to linear peptides of protein N of SARS-CoV Urbani [1]: 0.4; Binding of serum SARS-yellow to linear peptides of protein N of SARS-CoV Urbani [1]: 0.7; Control Serum Blood-Bank Looped peptides [2]: 0.4; Control serum Blood-bank linear peptides [2]: 0.8; Control serum LUMC linear peptides [2]: 0.7; Control serum LUMC looped peptides [2]: 0.3
2 | AEASKKPRQKRTATK | 0.2 | 0.1 | 0.2 | 0.1 | 0.4 | 0.3 | 0.3 | 0.1 | 0.2 | 0.1 | 0.2 | 0.2 | 0.1 | 0.2 | 0.1 | 0.2 | 0.3 | 0.7 | 0.7 | 0.4 | Binding of serum SARS-green to linear peptide (PEPSCAN-ELISA) [1]: 0.4; Binding of serum SARS-yellow to linear peptide (PEPSCAN-ELISA) [1]: 0.7; Binding of Control Serum Blood-Bank to Looped peptides [2]: 0.4; Binding of Control serum Blood-bank to linear peptides [2]: 0.8; Binding of Control serum LUMC to linear peptides [2]: 0.8; Binding of Control serum LUMC to looped peptides [2]: 0.4
3 | AEGSRGGSQASSRSS | 0.4 | 0.2 | 0.4 | 0.5 | 0.5 | 0.5 | 0.4 | 0.4 | 0.4 | 0.1 | 0.2 | 0.2 | 0.6 | 0.3 | 0.2 | 0.3 | 0.3 | 0.7 | 0.7 | 0.5 | Binding of serum SARS-green to linear peptide (PEPSCAN-ELISA) [1]: 0.4; Binding of serum SARS-yellow to linear peptide (PEPSCAN-ELISA) [1]: 0.6; Binding of Control Serum Blood-Bank to Looped peptides [2]: 0.6; Binding of Control serum Blood-bank to linear peptides [2]: 0.8; Binding of Control serum LUMC to linear peptides [2]: 0.8; Binding of Control serum LUMC to looped peptides [2]: 0.8
